Data on 2 compounds can be found in paper PMC10818931, “In Vitro Evaluation of Drug–Drug Interaction Potential of Epetraborole, a Novel Bacterial Leucyl-tRNA Synthetase Inhibitor” (Pharmaceuticals, 2024).

What all share (assay): Uptake transporter inhibition in transfected HEK 293 or MDCK cells
Holding throughout (assay type): in vitro ADME

One data set concerns the target T1, OCT2 (Homo sapiens, UniProt O15244).
T1 construct: host or cells: MDCK
T1 sequence (O15244 1-555): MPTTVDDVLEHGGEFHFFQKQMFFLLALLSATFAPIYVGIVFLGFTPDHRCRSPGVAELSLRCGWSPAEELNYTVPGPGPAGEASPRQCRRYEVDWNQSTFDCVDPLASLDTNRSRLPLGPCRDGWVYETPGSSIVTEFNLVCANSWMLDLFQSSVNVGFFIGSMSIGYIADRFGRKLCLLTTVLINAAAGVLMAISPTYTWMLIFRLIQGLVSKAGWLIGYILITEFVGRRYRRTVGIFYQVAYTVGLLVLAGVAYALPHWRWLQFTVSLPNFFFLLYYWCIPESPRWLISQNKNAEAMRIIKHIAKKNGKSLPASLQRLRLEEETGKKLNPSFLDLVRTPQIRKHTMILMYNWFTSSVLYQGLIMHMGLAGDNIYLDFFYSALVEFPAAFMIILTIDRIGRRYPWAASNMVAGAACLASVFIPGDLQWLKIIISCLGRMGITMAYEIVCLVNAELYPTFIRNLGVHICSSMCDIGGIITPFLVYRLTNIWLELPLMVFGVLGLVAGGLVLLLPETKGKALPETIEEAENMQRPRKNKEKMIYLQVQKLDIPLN
Here is the method:
(§1) Cell monolayers were preincubated (37 °C) for 15 to 30 min in a transport medium containing the target concentration of EBO or a specific inhibitor without substrate. Following the removal of preincubation solutions, appropriate working solutions containing EBO at the target concentration plus the probe substrate were added to the wells in triplicate. Separate sets of triplicate wells were designated for probe substrate only and probe substrate plus the specific inhibitors, to determine the maximal uptake rate and maximal inhibition of uptake, respectively. After incubation at 37 °C for each transporter, the working solution was removed from each well and the experiment was stopped by washing three times with cold (4 °C) DPBS. Depending on the substrate label, cells were either lysed for the analysis of total radioactivity (liquid scintillation counter) or LC-MS/MS methods. For measuring relative fluorescence (FLUOstar Galaxy, Cary, NC, USA), cells were not lysed.

Another data set addresses T2, OATP1B3 (Homo sapiens, UniProt Q9NPD5).
T2 construct: host or cells: MDCK
T2 sequence (Q9NPD5 1-702): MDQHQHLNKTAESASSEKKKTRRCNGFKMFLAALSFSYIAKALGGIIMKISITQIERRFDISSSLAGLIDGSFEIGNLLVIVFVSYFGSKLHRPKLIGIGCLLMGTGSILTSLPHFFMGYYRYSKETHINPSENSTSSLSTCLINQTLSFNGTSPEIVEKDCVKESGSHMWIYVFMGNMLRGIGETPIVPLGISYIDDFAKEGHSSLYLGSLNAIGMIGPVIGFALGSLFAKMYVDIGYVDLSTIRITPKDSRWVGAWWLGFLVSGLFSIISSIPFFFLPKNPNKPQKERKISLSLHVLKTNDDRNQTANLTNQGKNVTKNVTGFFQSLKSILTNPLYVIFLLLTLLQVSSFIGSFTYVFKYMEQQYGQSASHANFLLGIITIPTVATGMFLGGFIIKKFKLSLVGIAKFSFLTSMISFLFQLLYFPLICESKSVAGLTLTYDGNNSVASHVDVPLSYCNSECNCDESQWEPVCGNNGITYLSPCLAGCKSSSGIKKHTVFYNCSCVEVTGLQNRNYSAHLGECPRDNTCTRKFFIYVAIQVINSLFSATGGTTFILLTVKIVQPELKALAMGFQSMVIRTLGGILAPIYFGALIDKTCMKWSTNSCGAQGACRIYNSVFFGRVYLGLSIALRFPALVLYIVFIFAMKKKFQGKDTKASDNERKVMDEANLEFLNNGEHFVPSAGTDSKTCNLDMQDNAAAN
Here is the method:
as §1

The target in the next data set is T3, OCT1 (Homo sapiens, UniProt O15245).
T3 construct: expressed in transfected cells; host or cells: HEK 293 or MDCK
Here is the method: as §1

The next data set addresses T4, OATP1B1 (Homo sapiens, UniProt Q9Y6L6).
T4 construct: host or cells: MDCK
T4 sequence (Q9Y6L6 1-691): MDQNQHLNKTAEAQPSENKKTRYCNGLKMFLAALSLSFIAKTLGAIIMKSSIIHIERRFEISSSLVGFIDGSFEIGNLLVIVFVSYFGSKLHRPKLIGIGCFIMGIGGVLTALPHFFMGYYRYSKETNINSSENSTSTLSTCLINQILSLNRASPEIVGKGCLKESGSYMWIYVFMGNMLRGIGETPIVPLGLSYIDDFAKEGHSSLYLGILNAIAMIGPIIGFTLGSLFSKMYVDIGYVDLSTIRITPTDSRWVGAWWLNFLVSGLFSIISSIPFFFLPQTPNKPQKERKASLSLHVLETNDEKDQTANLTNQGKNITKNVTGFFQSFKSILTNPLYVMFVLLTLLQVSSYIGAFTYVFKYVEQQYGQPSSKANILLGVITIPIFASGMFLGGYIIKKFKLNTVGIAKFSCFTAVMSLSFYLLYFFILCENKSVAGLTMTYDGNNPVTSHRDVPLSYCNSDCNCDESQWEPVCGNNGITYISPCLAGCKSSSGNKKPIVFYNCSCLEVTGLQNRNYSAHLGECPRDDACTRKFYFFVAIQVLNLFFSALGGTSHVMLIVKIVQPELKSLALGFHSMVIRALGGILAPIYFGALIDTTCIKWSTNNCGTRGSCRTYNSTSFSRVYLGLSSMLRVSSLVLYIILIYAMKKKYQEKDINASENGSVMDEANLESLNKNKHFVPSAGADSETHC
Here is the method:
as §1

[1] abbreviates: read-out: as an Inhibitor, IC50.

T3 sequence (O15245 whole entry): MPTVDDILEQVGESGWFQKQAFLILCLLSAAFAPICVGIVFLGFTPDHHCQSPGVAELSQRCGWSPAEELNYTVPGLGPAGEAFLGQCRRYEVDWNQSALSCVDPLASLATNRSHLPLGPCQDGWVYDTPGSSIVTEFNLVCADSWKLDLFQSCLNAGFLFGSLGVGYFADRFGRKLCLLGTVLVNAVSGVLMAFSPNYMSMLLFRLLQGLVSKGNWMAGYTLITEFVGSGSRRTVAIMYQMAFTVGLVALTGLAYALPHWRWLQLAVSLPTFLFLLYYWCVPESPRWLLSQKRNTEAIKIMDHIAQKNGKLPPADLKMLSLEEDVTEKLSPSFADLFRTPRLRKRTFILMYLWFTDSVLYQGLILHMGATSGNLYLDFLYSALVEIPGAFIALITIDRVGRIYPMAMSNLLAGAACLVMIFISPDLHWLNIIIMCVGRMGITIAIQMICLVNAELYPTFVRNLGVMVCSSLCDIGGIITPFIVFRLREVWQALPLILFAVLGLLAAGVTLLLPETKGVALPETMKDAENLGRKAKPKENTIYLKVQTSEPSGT

As a reminder, the IC50 is the point on the concentration scale where inhibition reaches its midpoint. `NC[C@H]1OB(O)c2c(OCCC(=O)O)cccc21` [M3]: the 50% inhibitory concentration (IC50) at OCT2 (setting [1]), at OATP1B3 (setting [1]), on OCT1 (setting [1]) and at OATP1B1 (setting [1]) was greater than 250 µM each time.

In general, inhibition refers to the percentage by which the read-out fell short of the control. Consider `NC[C@H]1OB(O)c2c(OCCCO)cccc21` [EBO, Epetraborole], for which the inhibition at 1000 µM on OCT2 (human, probe metformin, metformin transport, at 1000 µM (maximum tested)) amounted to 20%; at OCT1 (human, HEK 293 or MDCK cells transfected with OCT1, probe metformin, metformin transport, at 1000 µM (maximum tested)), 59%. The inhibition at 500 µM against OATP1B3 (human, HEK 293 or MDCK cells transfected with OATP1B3, at 500 µM) came to 21%; at OATP1B1 (human, HEK 293 or MDCK cells transfected with OATP1B1, at 500 µM) it was 25%.
